Laboratory results taken from patent publication US5358951A, “Angiotensin II receptor blocking 2, 3, 6 substituted quinazolinones” (American Cyanamid Company, priority 1993, dated 1994).

Test system: vasopressor response of angiotensin II
Test: AII Challenge: antagonism of angiotensin II vasopressor response
Assay type: in vivo
Details: 3 mg/kg I.V.; for inhibition in vivo at 3 mg/kg: Rattus norvegicus, iv
In short: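 Percent antagonism is based on the systolic blood pressure rise (mmHg) to i.v. angiotensin II at 0.05 and 0.1 ug/kg. Each rat's own predose response was taken as 100%. Challenges were repeated from 30 to 300 min after i.v., i.p. or oral compound in cannulated conscious male SHR, 16-20 weeks old.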

## CCCCc1nc2ccc([C@]3(C)C[C@@H]4CCCCN4O3)cc2c(=O)n1Cc1ccc(-c2ccccc2-c2nnn[nH]2)cc1 (relative stereo) [Example 68, Trans-2-Butyl-6-(hexahydro-2-methyl-2H-isoxazolo[2,3-a]pyridin-2-yl)-3-[[2'-(1H-tetrazol-5-yl)[1,1'-biphenyl]-4-yl]methyl]-4(3H)-quinazolinone]
AII 0.05 mcg/kg IV, 30 min post dose
  Response Average Change: 2.5 mmHg
AII 0.05 mcg/kg IV, 60 min post dose
  Response Average Change: 2.5 mmHg
AII 0.05 mcg/kg IV, 90 min post dose
  Response Average Change: 7.5 mmHg
AII 0.05 mcg/kg IV, 120 min post dose
  Response Average Change: 11 mmHg
AII 0.05 mcg/kg IV, 180 min post dose
  Response Average Change: 10 mmHg
AII 0.05 mcg/kg IV, 240 min post dose
  Response Average Change: 20 mmHg
AII 0.05 mcg/kg IV, 300 min post dose
  Response Average Change: 10 mmHg
AII 0.1 mcg/kg IV, 30 min post dose
  Response Average Change: 5 mmHg
AII 0.1 mcg/kg IV, 60 min post dose
  Response Average Change: 9 mmHg
AII 0.1 mcg/kg IV, 90 min post dose
  Response Average Change: 9 mmHg
AII 0.1 mcg/kg IV, 120 min post dose
  Response Average Change: 10 mmHg
AII 0.1 mcg/kg IV, 180 min post dose
  Response Average Change: 20 mmHg
AII 0.1 mcg/kg IV, 240 min post dose
  Response Average Change: 17.5 mmHg
AII 0.1 mcg/kg IV, 300 min post dose
  Response Average Change: 22.5 mmHg
0.5 h, AII 0.05 mcg/kg IV, 30 min post dose
  inhibition in vivo at 3 mg/kg: 95%
0.5 h, AII 0.1 mcg/kg IV, 30 min post dose
  inhibition in vivo at 3 mg/kg: 91%
1 h, AII 0.05 mcg/kg IV, 60 min post dose
  inhibition in vivo at 3 mg/kg: 95%
1 h, AII 0.1 mcg/kg IV, 60 min post dose
  inhibition in vivo at 3 mg/kg: 84%
2 h, AII 0.05 mcg/kg IV, 120 min post dose
  inhibition in vivo at 3 mg/kg: 79%
2 h, AII 0.1 mcg/kg IV, 120 min post dose
  inhibition in vivo at 3 mg/kg: 82%
3 h, AII 0.05 mcg/kg IV, 180 min post dose
  inhibition in vivo at 3 mg/kg: 81%
3 h, AII 0.1 mcg/kg IV, 180 min post dose
  inhibition in vivo at 3 mg/kg: 64%
4 h, AII 0.05 mcg/kg IV, 240 min post dose
  inhibition in vivo at 3 mg/kg: 61%
4 h, AII 0.1 mcg/kg IV, 240 min post dose
  inhibition in vivo at 3 mg/kg: 69%
5 h, AII 0.05 mcg/kg IV, 300 min post dose
  inhibition in vivo at 3 mg/kg: 81%
5 h, AII 0.1 mcg/kg IV, 300 min post dose
  inhibition in vivo at 3 mg/kg: 60%
[…], AII 0.05 mcg/kg IV, 90 min post dose
  inhibition in vivo at 3 mg/kg: 85%
[…], AII 0.1 mcg/kg IV, 90 min post dose
  inhibition in vivo at 3 mg/kg: 84%
